Reference: US5607937A, “Piperazides of substituted phenylalanine derivatives as thrombin inhibitors” (priority 1993, dated 1997)
Where two headings read alike, the source gives them in different places.

What was measured:
[1] = target: tPA (Homo sapiens, UniProt P00750); test: inhibition of tPA, dissociation constant Ki
[2] = target: T1, factor XIIa (Homo sapiens, UniProt P00748); test: inhibition of factor XIIa, dissociation constant Ki
T1 sequence (P00748 373-615 limits assumed): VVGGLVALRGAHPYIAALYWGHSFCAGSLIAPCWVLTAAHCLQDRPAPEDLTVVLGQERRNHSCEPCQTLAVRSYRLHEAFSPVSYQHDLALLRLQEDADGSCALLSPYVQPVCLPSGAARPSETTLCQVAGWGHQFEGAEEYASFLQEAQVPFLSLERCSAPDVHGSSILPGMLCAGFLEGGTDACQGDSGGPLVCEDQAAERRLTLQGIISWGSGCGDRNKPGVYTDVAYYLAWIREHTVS

[3] = target: factor Xa (Bos taurus, UniProt P00743); test: inhibition of factor Xa, dissociation constant Ki; assay type: biochemical; details: Table 1
Protocol: (§1) The biological activity of the compounds of the present invention was determined in vitro as well as in vivo.

[4] = target: T2, trypsin (Bos taurus, UniProt P00760); test: inhibition of trypsin, dissociation constant Ki; assay type: biochemical; design: thrombin and the related enzymes trypsin, plasmin, factor Xa, factor XIIa; details: Table 1; read-out: Ki, Trypsin
T2 sequence (P00760 24-246): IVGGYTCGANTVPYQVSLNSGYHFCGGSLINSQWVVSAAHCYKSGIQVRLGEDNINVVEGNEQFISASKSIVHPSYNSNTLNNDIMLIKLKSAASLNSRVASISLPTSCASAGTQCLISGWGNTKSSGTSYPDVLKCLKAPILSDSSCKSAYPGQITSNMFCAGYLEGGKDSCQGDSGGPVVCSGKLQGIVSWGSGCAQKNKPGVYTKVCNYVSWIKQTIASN
Protocol: as §1

[5] = target: plasmin (Homo sapiens, UniProt P00747); test: inhibition of plasmin, dissociation constant Ki
[6] = target: glandular kallikrein (Sus scrofa, UniProt P00752); test: inhibition of glandular kallikrein, dissociation constant Ki
[7] = target: plasma kallikrein (Homo sapiens, UniProt P03952); test: inhibition of plasma kallikrein, dissociation constant Ki
[8] = target: T3, thrombin (Bos taurus, UniProt P00735); test: biochemical
[9] = target: T3, thrombin; details: read-out: Ki, Thrombin

plasma kallikrein, sequence (P03952 391-638 limits assumed, species assumed): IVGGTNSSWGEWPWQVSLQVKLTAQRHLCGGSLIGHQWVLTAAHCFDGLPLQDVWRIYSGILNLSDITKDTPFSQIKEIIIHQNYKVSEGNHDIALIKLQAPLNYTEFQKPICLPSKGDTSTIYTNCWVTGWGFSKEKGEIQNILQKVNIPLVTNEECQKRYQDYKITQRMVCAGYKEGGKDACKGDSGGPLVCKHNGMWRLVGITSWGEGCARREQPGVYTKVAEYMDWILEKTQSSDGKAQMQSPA
plasma kallikrein, sequence (P03952 20-390 partner limits assumed, species assumed): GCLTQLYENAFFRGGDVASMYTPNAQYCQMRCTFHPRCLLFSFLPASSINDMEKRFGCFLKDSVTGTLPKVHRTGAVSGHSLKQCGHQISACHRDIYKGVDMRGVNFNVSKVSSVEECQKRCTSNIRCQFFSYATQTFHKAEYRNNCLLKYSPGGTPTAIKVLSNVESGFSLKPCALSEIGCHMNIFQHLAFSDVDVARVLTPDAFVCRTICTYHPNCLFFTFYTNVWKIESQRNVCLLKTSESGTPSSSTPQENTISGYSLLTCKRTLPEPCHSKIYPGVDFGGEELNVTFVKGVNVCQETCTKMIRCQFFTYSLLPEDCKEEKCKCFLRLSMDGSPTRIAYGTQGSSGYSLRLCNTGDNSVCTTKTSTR
tPA, sequence (P00750 36-562): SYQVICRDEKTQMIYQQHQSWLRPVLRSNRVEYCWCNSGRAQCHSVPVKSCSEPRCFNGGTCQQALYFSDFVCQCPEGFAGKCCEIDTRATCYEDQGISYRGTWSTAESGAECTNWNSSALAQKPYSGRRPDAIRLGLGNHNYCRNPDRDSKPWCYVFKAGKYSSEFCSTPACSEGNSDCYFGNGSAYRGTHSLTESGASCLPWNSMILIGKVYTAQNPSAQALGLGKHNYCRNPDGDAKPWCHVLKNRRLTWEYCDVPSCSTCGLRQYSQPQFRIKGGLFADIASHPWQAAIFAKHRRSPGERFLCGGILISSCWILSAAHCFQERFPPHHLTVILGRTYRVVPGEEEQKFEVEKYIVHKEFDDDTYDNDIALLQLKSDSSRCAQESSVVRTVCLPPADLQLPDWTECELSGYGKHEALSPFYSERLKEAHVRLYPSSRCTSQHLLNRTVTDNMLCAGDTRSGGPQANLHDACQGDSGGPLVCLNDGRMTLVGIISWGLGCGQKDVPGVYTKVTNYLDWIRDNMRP
glandular kallikrein, sequence (P00752 8-246): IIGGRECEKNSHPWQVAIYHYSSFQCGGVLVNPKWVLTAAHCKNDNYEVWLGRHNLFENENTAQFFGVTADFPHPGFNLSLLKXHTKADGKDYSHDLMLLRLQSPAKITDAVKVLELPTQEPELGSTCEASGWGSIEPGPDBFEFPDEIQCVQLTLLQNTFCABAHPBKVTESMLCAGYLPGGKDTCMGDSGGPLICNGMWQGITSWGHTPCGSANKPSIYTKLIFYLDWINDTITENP
factor Xa, sequence (P00743 234-492 limits assumed): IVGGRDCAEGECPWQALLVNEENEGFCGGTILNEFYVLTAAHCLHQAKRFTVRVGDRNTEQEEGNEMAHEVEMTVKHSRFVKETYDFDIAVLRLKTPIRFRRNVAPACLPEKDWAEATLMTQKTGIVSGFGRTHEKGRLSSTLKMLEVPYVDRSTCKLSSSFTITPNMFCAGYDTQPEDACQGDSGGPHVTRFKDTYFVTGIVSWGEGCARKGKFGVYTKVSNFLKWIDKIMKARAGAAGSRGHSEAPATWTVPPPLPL
factor Xa, sequence (P00743 41-180 partner limits assumed): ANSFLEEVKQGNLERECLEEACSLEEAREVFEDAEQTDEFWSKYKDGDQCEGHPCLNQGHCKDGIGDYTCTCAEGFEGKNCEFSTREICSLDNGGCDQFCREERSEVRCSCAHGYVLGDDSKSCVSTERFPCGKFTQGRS
plasmin, sequence (P00747 581-810 limits assumed): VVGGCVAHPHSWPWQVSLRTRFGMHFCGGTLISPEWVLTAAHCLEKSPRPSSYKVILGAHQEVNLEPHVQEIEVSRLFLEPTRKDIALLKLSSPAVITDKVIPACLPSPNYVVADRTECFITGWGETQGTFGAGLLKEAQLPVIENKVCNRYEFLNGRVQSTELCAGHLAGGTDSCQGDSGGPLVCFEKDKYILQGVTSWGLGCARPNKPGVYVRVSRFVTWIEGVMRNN
plasmin, sequence (P00747 97-580 partner limits assumed): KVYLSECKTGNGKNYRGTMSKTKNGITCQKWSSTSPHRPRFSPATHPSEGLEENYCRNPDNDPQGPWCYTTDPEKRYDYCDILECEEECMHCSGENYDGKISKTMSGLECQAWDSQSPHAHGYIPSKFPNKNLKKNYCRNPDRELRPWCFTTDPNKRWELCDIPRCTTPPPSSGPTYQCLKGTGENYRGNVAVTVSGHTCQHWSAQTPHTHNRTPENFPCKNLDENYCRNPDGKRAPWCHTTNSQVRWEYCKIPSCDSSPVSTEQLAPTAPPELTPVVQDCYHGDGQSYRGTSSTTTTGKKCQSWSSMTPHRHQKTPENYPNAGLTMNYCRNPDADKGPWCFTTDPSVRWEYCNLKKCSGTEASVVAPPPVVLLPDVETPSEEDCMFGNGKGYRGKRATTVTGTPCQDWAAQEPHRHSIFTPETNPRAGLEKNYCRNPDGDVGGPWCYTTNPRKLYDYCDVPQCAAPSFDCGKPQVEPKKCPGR

| Structure (SMILES) | Ki [1] [µM] | Ki [2] [µM] | Ki [3] [µM] | Ki [4] [µM] | Ki [5] [µM] | Ki [6] [µM] | Ki [7] [µM] | Ki [8] [µM] | Ki ([5]; read-out: Ki, Plasmin, Table 1) [µM] | Ki ([9]; Table 1) [µM] | Ki ([2]; Ki, Factor XIIa, Table 1) [µM] | Ki [9] [µM] |
| --- | --- | --- | --- | --- | --- | --- | --- | --- | --- | --- | --- | --- |
| N=C(N)c1cccc(CC(NS(=O)(=O)c2ccc3ccccc3c2)C(=O)N2CCN(c3ccccn3)CC2)c1 (centres unmarked) [AMD 2-Naph 2-Pyl] | > 1000 | 84 | 12 | 0.035 | 3.3 | > 1000 | 19 | 0.52 | – | – | – | – |
| N=C(N)c1cccc(CC(NS(=O)(=O)c2ccc3ccccc3c2)C(=O)N2CCN(c3ncccn3)CC2)c1 (centres unmarked) [AMD 2-Naph 2-Pym] | 320 | 100 | 14 | 0.061 | 3.3 | > 1000 | 19 | 1.8 | – | – | – | – |
| CCCCCC(=O)N1CCN(C(=O)C(Cc2cccc(C(=N)N)c2)NS(=O)(=O)c2ccc3ccccc3c2)CC1 (centres unmarked) [AMD 2-Naph CO(CH2)4 CH3] | > 1000 | 270 | 19 | – | – | > 1000 | 23 | – | 2.6 | 6.5 | – | – |
| N=C(N)c1cccc(CC(NS(=O)(=O)c2ccc3ccccc3c2)C(=O)N2CCN(C(=O)C3CCC3)CC2)c1 (centres unmarked) [AMD 2-Naph CO-cBu] | > 1000 | > 1000 | – | 0.026 | 7.6 | > 1000 | 56 | 2.5 | – | – | – | – |
| N=C(N)c1cccc(CC(NS(=O)(=O)c2ccc3ccccc3c2)C(=O)N2CCN(C(=O)C3CCCCC3)CC2)c1 (centres unmarked) [AMD 2-Naph CO-cHex] | > 1000 | 350 | – | – | – | > 1000 | 79 | – | 10.2 | – | – | – |
| N=C(N)c1cccc(CC(NS(=O)(=O)c2ccc3ccccc3c2)C(=O)N2CCN(C(=O)C3CC3)CC2)c1 (centres unmarked) [AMD 2-Naph CO-cPr] | 170 | 540 | 45 | 0.044 | 5.1 | > 1000 | 22 | 0.14 | – | – | – | – |
| COCC(=O)N1CCN(C(=O)C(Cc2cccc(C(=N)N)c2)NS(=O)(=O)c2ccc3ccccc3c2)CC1 (centres unmarked) [AMD 2-Naph COCH2 OMe] | > 1000 | 74 | 16 | 0.066 | 6.2 | > 1000 | 16 | 1.3 | – | – | – | – |
| CC(C)C(=O)N1CCN(C(=O)C(Cc2cccc(C(=N)N)c2)NS(=O)(=O)c2ccc3ccccc3c2)CC1 (centres unmarked) [AMD 2-Naph COCH(Me)2] | 440 | > 1000 | 84 | 0.063 | 9.3 | > 1000 | 50 | 0.26 | – | – | – | – |
| N=C(N)c1cccc(CC(NS(=O)(=O)c2ccc3ccccc3c2)C(=O)N2CCN(CCO)CC2)c1 (centres unmarked) [AMD 2-Naph EtOH] | > 1000 | – | 35 | – | – | > 1000 | 74 | – | 42 | – | > 1000 | 0.058 |
| N=C(N)c1cccc(CC(NS(=O)(=O)c2ccc3ccccc3c2)C(=O)N2CCN(C=O)CC2)c1 (centres unmarked) [AMD 2-Naph For] | > 1000 | 83 | 19 | – | – | 440 | 16 | – | 6.3 | – | – | 0.037 |
| COc1cc(C)c(S(=O)(=O)N2CCN(C(=O)C(Cc3cccc(C(=N)N)c3)NS(=O)(=O)c3ccc4ccccc4c3)CC2)c(C)c1C (centres unmarked) [AMD 2-Naph SO2 -Mtr] | > 1000 | 7.6 | 25 | 1.5 | 37 | > 1000 | 6.9 | 0.05 | – | – | – | – |
| N=C(N)c1cccc(CC(NS(=O)(=O)c2ccc3ccccc3c2)C(=O)N2CCN(S(=O)(=O)c3ccccc3)CC2)c1 (centres unmarked) [AMD 2-Naph SO2 -Ph] | > 1000 | 120 | 24 | – | – | > 1000 | 36 | – | 19 | 0.041 | – | – |
| Cc1cc(C)c(S(=O)(=O)N2CCN(C(=O)C(Cc3cccc(C(=N)N)c3)NS(=O)(=O)c3ccc4ccccc4c3)CC2)c(C)c1 (centres unmarked) [AMD 2-Naph SO2 -TMeP] | > 1000 | 690 | 13 | 0.59 | 31 | > 1000 | 1 | 0.075 | – | – | – | – |
| CS(=O)(=O)N1CCN(C(=O)C(Cc2cccc(C(=N)N)c2)NS(=O)(=O)c2ccc3ccccc3c2)CC1 (centres unmarked) [AMD 2-Naph SO2 Me] | > 1000 | 86 | 22 | – | – | > 1000 | 77 | – | 12 | – | – | – |
| Cc1c(C)c(S(=O)(=O)NC(Cc2cccc(C(=N)N)c2)C(=O)N2CCN(S(C)(=O)=O)CC2)c(C)c2c1OC(C)(C)CC2 (centres unmarked) [AMD Pmc SO2 Me] | > 1000 | 140 | 75 | – | – | > 1000 | 140 | – | – | 0.0074 | – | – |

Now from value to compound, other results behind:

| Ki [1] [µM] | Ki [2] [µM] | Ki [3] [µM] | Ki [4] [µM] | Ki [5] [µM] | Ki [6] [µM] | Ki [7] [µM] | Ki [8] [µM] | Structure (SMILES) | Ki ([5]; read-out: Ki, Plasmin, Table 1) [µM] | Ki ([9]; Table 1) [µM] | Ki ([2]; Ki, Factor XIIa, Table 1) [µM] | Ki [9] [µM] |
| --- | --- | --- | --- | --- | --- | --- | --- | --- | --- | --- | --- | --- |
| 170 | 72 | 16 | 0.081 | 2.7 | > 1000 | 19 | 2.5 | N=C(N)c1cccc(CC(NS(=O)(=O)c2ccc3ccccc3c2)C(=O)N2CCN(C(=O)Cc3cccs3)CC2)c1 (centres unmarked) [AMD 2-Naph drawing 11] | – | – | – | – |
| 84 | 7.2 | 1.7 | 0.033 | 13 | > 1000 | 11 | 0.031 | N=C(N)c1cccc(CC(NS(=O)(=O)c2ccc3c(c2)C(=O)c2ccccc2C3=O)C(=O)N2CCN(C=O)CC2)c1 (centres unmarked) [AMD AC For] | – | – | – | – |
| 670 | 420 | 150 | 0.6 | 11.5 | 760 | 44 | 0.074 | CC(=O)N1CCN(C(=O)C(Cc2cccc(C(=N)N)c2)NS(=O)(=O)c2c(C)c(C)c3c(c2C)CCC(C)(C)O3)CC1 (centres unmarked) [AMD Pmc Ac] | – | – | – | – |
| > 1000 | > 1000 | 26 | 0.58 | 13 | > 1000 | 93 | 0.033 | Cc1c(C)c(S(=O)(=O)NC(Cc2cccc(C(=N)N)c2)C(=O)N2CCN(C(=O)N(C)C)CC2)c(C)c2c1OC(C)(C)CC2 (centres unmarked) [AMD Pmc CO-N(Me)2] | – | – | – | – |
| > 1000 | > 1000 | 91 | 3.3 | 48 | > 1000 | 180 | 0.059 | Cc1c(C)c(S(=O)(=O)NC(Cc2cccc(C(=N)N)c2)C(=O)N2CCN(CCO)CC2)c(C)c2c1OC(C)(C)CC2 (centres unmarked) [AMD Pmc EtOH] | – | – | – | – |
| 17 | 47 | 4 | 0.22 | – | 200 | 7.3 | 0.098 | CC(=O)N1CCN(C(=O)C(Cc2cccc(C(=N)N)c2)NS(=O)(=O)c2c(C(C)C)cc(C(C)C)cc2C(C)C)CC1 (centres unmarked) [AMD TIPP Ac] | 3 | – | – | – |
| 120 | 42 | – | 0.073 | – | > 1000 | 3.6 | 0.011 | N=C(N)c1cccc(C[C@H](NS(=O)(=O)c2ccc3ccccc3c2)C(=O)N2CCN(C=O)CC2)c1 [AMD(L) 2-Naph For] | – | – | – | – |
| > 1000 | > 1000 | 130 | 0.53 | 26 | > 1000 | 94 | 24 | NCc1cccc(CC(NS(=O)(=O)c2ccc3ccccc3c2)C(=O)N2CCN(c3ccccn3)CC2)c1 (centres unmarked) [Ame 2-Naph 2-Pyl] | – | – | – | – |
